Test results taken from ChEMBL document CHEMBL5380876, “Non-fused imidazole-biphenyl analogs repress triple-negative breast cancer growth by mainly stabilizing the c-MYC G-quadruplex via a multi-site binding mode” (Bioorg Med Chem, 2023).
Calls of active or inactive are those of the source. The rule behind the calls is not given here.

Columns and labels:
[1] = system: A549; test: Cytotoxicity against human A549 cells assessed as reduction in cell viability by CCK8 assay; format: functional, cell-based
[2] = system: HCC1806; test: Cytotoxicity against human HCC1806 cells assessed as reduction in cell viability by CCK8 assay; format: functional, cell-based
[3] = system: KYSE-30; test: Cytotoxicity against human KYSE-30 cells assessed as reduction in cell viability by CCK8 assay; format: functional, cell-based
[4] = system: MDA-MB-231; test: Cytotoxicity against human MDA-MB-231 cells assessed as reduction in cell viability by CCK8 assay; format: functional, cell-based
[5] = Cytotoxicity against human MCF-10A cells assessed as reduction in cell viability by CCK8 assay; format: toxicity, cell-based
[6] = molecular target: Quadruplex DNA; test: Binding affinity to c-MYC G4 quadraplex DNA (unknown origin) assessed as dissociation constant by fluorescence titration based analysis; format: nucleic-acid assay
[7] = system: Quadruplex DNA; test: Stabilization of c-MYC G4 quadruplex DNA (unknown origin) assessed as change in temperature incubated for 2 hrs in presence of KRAS by FRET assay; format: nucleic-acid assay
[8] = system: Quadruplex DNA; test: Stabilization of c-MYC G4 quadruplex DNA (unknown origin) assessed as change in temperature incubated for 2 hrs in presence of telomer by FRET assay; format: nucleic-acid assay
[9] = system: MDA-MB-231; test: Downregulation of c-MYC expression in human MDA-MB-231 cells measured after 24 hrs by RT-PCR analysis; format: functional, cell-based; settings: dose 1-4 µM
[10] = system: MDA-MB-231; test: Induction of DNA damage in human MDA-MB-231 cells assessed as increase in gamma-H2AX fluorescence intensity at 4 uM measured after 24 hrs by immunofluorescence analysis; format: functional, cell-based
[11] = system: MDA-MB-231; test: Upregulation of phosphorylated ATM in human MDA-MB-231 cells at 1 to 4 uM measured after 24 hrs by Western blot analysis; format: functional, cell-based; settings: dose 1-4 µM
[12] = system: MDA-MB-231; test: Induction of cell cycle arrest in human MDA-MB-231 cells assessed as accumulation of cells at G0/G1 phase at 1 uM incubated for 24 hrs by propidium iodide staining based flow cytometry analysis (reference value: 66.35%); format: functional
[13] = system: MDA-MB-231; test: Induction of cell cycle arrest in human MDA-MB-231 cells assessed as accumulation of cells at S phase at 1 uM incubated for 24 hrs by propidium iodide staining based flow cytometry analysis (reference value: 15.50%); format: functional
[14] = system: MDA-MB-231; test: Induction of cell cycle arrest in human MDA-MB-231 cells assessed as accumulation of cells at G2/M phase at 1 uM incubated for 24 hrs by propidium iodide staining based flow cytometry analysis (reference value: 17.58%); format: functional
[15] = system: MDA-MB-231; test: Induction of cell cycle arrest in human MDA-MB-231 cells assessed as accumulation of cells at G0/G1 phase at 2 uM incubated for 24 hrs by propidium iodide staining based flow cytometry analysis (reference value: 66.35%); format: functional
[16] = system: MDA-MB-231; test: Induction of cell cycle arrest in human MDA-MB-231 cells assessed as accumulation of cells at sub-G1 phase at 4 uM incubated for 24 hrs by propidium iodide staining based flow cytometry analysis (reference value: 0.57%); format: functional
[17] = system: MDA-MB-231; test: Induction of cell cycle arrest in human MDA-MB-231 cells assessed as accumulation of cells at G2/M phase at 4 uM incubated for 24 hrs by propidium iodide staining based flow cytometry analysis (reference value: 17.58%); format: functional
[18] = system: MDA-MB-231; test: Induction of apoptosis in human MDA-MB-231 cells assessed as increase in early apoptotic cells at 1 to 4 uM incubated for 24 hrs by Annexin-V FITC/PI double staining based flow cytometry analysis; format: functional, cell-based; settings: dose 1-4 µM
[19] = system: MDA-MB-231; test: Induction of autophagy in human MDA-MB-231 cells assessed as increase in fluorescence intensity of LC3B in cytoplasm at 4 uM measured after 24 hrs by immunofluorescence based analysis; format: functional, cell-based
[20] = system: MDA-MB-231; test: Induction of autophagy in human MDA-MB-231 cells assessed as aggregation of p62 protein expression level at 1 to 4 uM incubated for 24 hrs by Western blot analysis; format: functional, cell-based; settings: dose 1-4 µM
[21] = system: MDA-MB-231; test: Induction of autophagy in human MDA-MB-231 cells assessed as conversion of LC3B-I to LC3B-II at 1 to 4 uM incubated for 24 hrs by Western blot analysis; format: functional, cell-based; settings: dose 1-4 µM
[22] = system: MDA-MB-231; test: Induction of apoptosis in human MDA-MB-231 cells assessed as caspase-3 cleavage at 1 to 4 uM incubated for 24 hrs by Western blot analysis; format: functional, cell-based; settings: dose 1-4 µM
[23] = system: MDA-MB-231; test: Induction of apoptosis in human MDA-MB-231 cells assessed as PARP cleavage at 1 to 4 uM incubated for 24 hrs by Western blot analysis; format: functional, cell-based; settings: dose 1-4 µM
[24] = system: MDA-MB-231; test: Cytotoxicity against human MDA-MB-231 cells assessed as inhibition of cell growth at 0 to 20 uM incubated for 48 hrs by CCK-8 assay; format: functional, cell-based; settings: MDA-MB-231, 48 h
[25] = system: MDA-MB-231; test: Cytotoxicity against human MDA-MB-231 cells assessed as inhibition of cell growth at 0 to 20 uM incubated for 72 hrs by CCK-8 assay; format: functional, cell-based; settings: MDA-MB-231, 72 h
[26] = system: MDA-MB-231; test: Cytotoxicity against human MDA-MB-231 cells assessed as reduction in cell viability at 0 to 20 uM by CCK-8 assay; format: functional, cell-based; settings: dose 0-20 µM, time 24-72 hrs, TDE = time-dependent effect
[27] = system: MDA-MB-231; test: Antitumor activity against human MDA-MB-231 cells xenografted in BALB/c nude mouse assessed as reduction in tumor volume at 5 mg/kg, ip administered every other day for 20 days and measured every 4 days; format: functional, organism-based; settings: time 20.0 day
[28] = system: MDA-MB-231; test: Antitumor activity against human MDA-MB-231 cells xenografted in BALB/c nude mouse assessed as reduction in tumor weight at 5 mg/kg, ip administered every other day for 20 days and measured every 4 days; format: functional, organism-based; settings: time 20.0 day
[29] = Toxicity in BALB/c mouse xenografted with human MDA-MB-231 cells assessed as distress at 5 mg/kg, ip administered every other day for 20 days and measured every 4 days; format: organism-based; settings: in vivo, 480 h, time 20 day
[30] = Toxicity in BALB/c mouse xenografted with human MDA-MB-231 cells assessed as effect on spleen at 5 mg/kg, ip administered every other day for 20 days and measured every 4 days; format: organism-based; settings: in vivo, 480 h, time 20 day
[31] = Toxicity in BALB/c mouse xenografted with human MDA-MB-231 cells assessed as effect on lung at 5 mg/kg, ip administered every other day for 20 days and measured every 4 days; format: organism-based; settings: in vivo, 480 h, time 20 day
[32] = system: Quadruplex DNA; test: Stabilization of G4 quadruplex telomeric22 DNA (unknown origin) assessed as change in melting temperature by circular dichroism melting assay
[33] = system: Quadruplex DNA; test: Stabilization of c-MYC G4 quadruplex DNA HRAS (unknown origin) assessed as change in temperature at which 50% protein unfold by circular dichroism melting assay

CN1CCN(c2ccc(-c3nc(-c4ccc(-c5ccc(C(F)(F)F)cc5)cc4)[nH]c3-c3ccc(N4CCN(C)CC4)cc3)cc2)CC1
IC50 [1]: 1.26 µM | IC50 [2]: 1.49 µM | IC50 [3]: 1.31 µM | IC50 [4]: 1.84 µM | IC50 [5]: 8.77 µM | Kd [6]: 2.7 µM | Activity [7]: Active | Activity [8]: Active | Activity [9]: Dose-Dependent Effect | Activity [10]: Active | Activity [11]: Active | Activity [12]: 74.71% | Activity [13]: 11.14% | Activity [14]: 13.49% | Activity [15]: 76.42% | Activity [16]: 44.98% | Activity [17]: 30.7% | Activity [18]: Active | Activity [19]: Active | Activity [20]: Active | Activity [21]: Active | Activity [22]: Active | Activity [23]: Active | IC50 [24]: 0.87 µM | IC50 [25]: 0.66 µM | Activity [26]: Tde | Activity [27]: Active | Activity [28]: Active | Activity [29]: Non-Toxic | Activity [30]: Non-Toxic | Activity [31]: Non-Toxic | ΔTm [32]: 0 °C | ΔTm [33]: 7.1 °C
